Assays:
Type in all cases: functional, Homo sapiens
TERT-RPE1 = assay: (§1) Here: values are normalized to the negative (DMSO; defined as 0% autophagy induction) and positive (250nM Torin1; mTOR inhibitor; defined as maximal inducer of autophagy = 100%) control compounds and represented as % of autophagy induction. […] The impact of autophagy induction on cells is complex and depends on the affected target. As such, the magnitude of a phenotype may not be equally mirrored in the %-value of autophagy induction and vice versa. The dynamics of the induction may indicate the mode of activation: e.g. activation via phosphorylation or a signaling cascade may occur fast, while activation via transcription factors may take considerably longer. […] Of note, treatment concentrations may be sub-optimal for specific compounds, leading to false negative annotations.; conditions: Culturing Media DMEM/F12 (1:1), 1 % Penicillin/Streptomycin, 10% Fetal bovin serum Add-On: No, Screening Media Control DMEM/F12 (1:1), Screening Media Samples DMEM/F12 (1:1)
U2OS [1] = assay: as §1; conditions: Culturing Media DMEM, 1 % Penicillin/Streptomycin, 10% Fetal bovin serum Add-On: No, Screening Media Control DMEM, Screening Media Samples DMEM
U2OS [2] = assay: as §1; conditions: Culturing Media DMEM, 1 % Penicillin/Streptomycin, 10% Fetal bovin serum Add-On: No, Screening Media Control DMEM, Screening Media Samples DMEM; remark: listed apart in the source
[3] = Compound Concentration 0.5 uM, Timepoint 12 hours
[4] = Compound Concentration 0.5 uM, Timepoint 24 hours
[5] = Compound Concentration 0.5 uM, Timepoint 36 hours
[6] = Compound Concentration 0.5 uM, Timepoint 60 hours
[7] = Compound Concentration 2 uM, Timepoint 12 hours
[8] = Compound Concentration 2 uM, Timepoint 24 hours
[9] = Compound Concentration 2 uM, Timepoint 36 hours
[10] = Compound Concentration 2 uM, Timepoint 60 hours
[11] = Compound Concentration 10 uM, Timepoint 12 hours
[12] = Compound Concentration 10 uM, Timepoint 24 hours
[13] = Compound Concentration 10 uM, Timepoint 36 hours
[14] = Compound Concentration 10 uM, Timepoint 60 hours

CCc1cc(C(C)=O)c(O)cc1OCCCCCC(C)(C)c1nn[nH]n1 [LY-255283]
autophagy induction (TERT-RPE1; [3]): -9.9842% | autophagy induction (TERT-RPE1; [4]): -11.9426% | autophagy induction (TERT-RPE1; [5]): -14.7708% | autophagy induction (TERT-RPE1; [6]): -17.4457% | autophagy induction (TERT-RPE1; [7]): -8.34% | autophagy induction (TERT-RPE1; [8]): -9.195% | autophagy induction (TERT-RPE1; [9]): -15.7799% | autophagy induction (TERT-RPE1; [10]): -19.0275% | autophagy induction (TERT-RPE1; [11]): -6.621% | autophagy induction (TERT-RPE1; [12]): -4.037% | autophagy induction (TERT-RPE1; [13]): -5.452% | autophagy induction (TERT-RPE1; [14]): -5.811% | autophagy induction (U2OS [1]; [3]): 3.867% | autophagy induction (U2OS [1]; [4]): -0.4862% | autophagy induction (U2OS [1]; [5]): -0.9692% | autophagy induction (U2OS [1]; [6]): -0.6256% | autophagy induction (U2OS [1]; [7]): 7.835% | autophagy induction (U2OS [1]; [8]): 0.4992% | autophagy induction (U2OS [1]; [9]): -1.36% | autophagy induction (U2OS [1]; [10]): 0.1348% | autophagy induction (U2OS [1]; [11]): 10.6288% | autophagy induction (U2OS [1]; [12]): 4.072% | autophagy induction (U2OS [1]; [13]): 1.093% | autophagy induction (U2OS [1]; [14]): 0.5552% | autophagy induction (U2OS [2]; [3]): 7.95% | autophagy induction (U2OS [2]; [4]): 0.1788% | autophagy induction (U2OS [2]; [5]): 0.4616% | autophagy induction (U2OS [2]; [6]): 2.676% | autophagy induction (U2OS [2]; [7]): 6.9255% | autophagy induction (U2OS [2]; [8]): 1.248% | autophagy induction (U2OS [2]; [9]): 3.296% | autophagy induction (U2OS [2]; [10]): 1.486% | autophagy induction (U2OS [2]; [11]): -12.1559% | autophagy induction (U2OS [2]; [12]): -5.674% | autophagy induction (U2OS [2]; [13]): -8.912% | autophagy induction (U2OS [2]; [14]): -14.6191%

Source: ChEMBL document CHEMBL5724696, “Autophagy assay results for EUbOPEN Chemogenomics Library” (2024)
